Source: US12178838B2, “Synthetic neuromodulatory peptides” (Lactocore, Inc., priority 2019, dated 2024)

Tests used:
[1] = target: hippocampal NMDA receptors; experiment: Radioligand analysis of NMDA receptors with [3H] (+) MK-801; type: binding, rat; conditions: [3H] (+) MK-801, room temperature, 2 hours; read-out: IC50 of displacement curve
Description: Hippocampal plasma membranes were isolated using modified methods (Zhou et al. (1997). (2S,4R)-4-methylglutamic acid (SYM 2081): a selective, high-affinity ligand for kainate receptors. J. Pharmacol. Exp. Ther., 280(1), 422-427, LePage et al. (2005). Differential binding properties of [^3H] dextrorphan and [^3H] MK-801 in heterologously expressed NMDA receptors. Neuropharmacol., 49(1), 1-16). After decapitation, the tissue was immediately frozen in liquid nitrogen and stored in a low-temperature refrigerator at −80° C. On the day of the experiment, the hippocampi were homogenized “Teflon-glass” in a Potter homogenizer in 10 volumes of buffer No. 1 (5 mM HEPES, 4.5 mM Tris, 0.32 M Sucrose, pH 7.6). The homogenate was diluted with 50 volumes of buffer No. 2 (5 mM HEPES, 4.5 mM Tris, pH 7.6) and centrifuged at 1000 g for 10 minutes on an Optima L-70K ultracentrifuge (Beckman Coulter). The supernatant was […] and centrifuged again at 25000 g for 20 minutes. To increase the protein yield, this operation was performed twice. The resulting precipitate was resuspended in 50 volumes of buffer No. 2 and centrifuged at 8000 g for 20 minutes. […]
The IC50 value with respect to the binding of labeled ligands was determined by adding 50 μl of the test compounds to the incubation medium at final concentrations of 10^−10-10^−4 M. The volume of the incubation mixture was 500 μl. […]

Wistar rats [2] = experiment: Learned helplessness model: Porsolt forced swimming test, one-day modification; type: in vivo; conditions: Maprotiline 4.5 mg/kg i/p; FQSE 0.5 mg/kg i/n
Protocol: (§1) Weigh was measured on an analytical balance, with an accuracy of 0.0001 g, the solution was prepared with a margin of 0.5 ml.
(§2) The tetracyclic antidepressant Maprotiline (Lyudiomil), a monoamine reuptake inhibitor, was used as a positive control. Animals received a daily intraperitoneal injection (i.p) of Maprotiline for ten days (M9651, Merck, 4.5 mg/kg, dissolved in saline: 200 μl per administration).
(§3) The state of “learned helplessness” according to modern concepts adequately reflects anxiety-depressive syndrome, reproducing the main signs of a person's endogenous depression, including the severity of effects of helplessness, hopelessness, and characteristic endocrine disorders. To develop LH, rats were subjected to uncontrolled unavoidable aversive stress (electro cutaneous irritation). […] Stimulation was performed automatically using a software randomizer.
(§4) “LH”—a group of animals subjected to stress, in which a depressive state of “learned helplessness” was developed. Pharmacotherapy was not performed in the LH group; the development of experimental depression was studied. […] “LH+Map.”—the comparison drug group. Maprotiline was injected intraperitoneally at a dosage of 4.5 mg/kg ten days daily to develop experimental depression.

Wistar rats [3] = experiment: Learned helplessness model: Open Field test; type: in vivo
Protocol: as §1, §2, §3
The Open Field test is a classic method for assessing the level of motor activity and exploratory behavior of rodents in new stressogenic conditions. […] On the 5th day after stressing in the LH model, the rat was placed in the center of the OF. The following parameters were measured for 5 minutes: latency to start of moving, the number of crossed squares (outside, intermediate and central), the duration of the rears and immobilization time.
as §4

[4] = system: corticosterone in rat plasma; experiment: Learned helplessness model: plasma corticosterone and dexamethasone test; type: in vivo, rats
Protocol: On the first day of the test (DXMT1) at 10:00 AM, animals were injected intraperitoneally with saline, then at 04:00 PM on the same day peripheral blood samples were taken to determine the basal level of the hormone, which caused stress, and 30 minutes after taking the rat from the cage and receiving initial sample, re-taken blood to measure hormone stress level.
To study the sensitivity of the HPA system to feedback signals, rats were injected with dexamethasone (10 μg/kg, intraperitoneally) the next day (DXMT2) at 10 am. The procedure for taking blood from the tail vein was repeated after 6 and 6.5 hours. The corticosterone content was determined by enzyme-linked immunosorbent assay with reagent kits “Corticosterone-ELISA” (“Hema”, RF) in two parallel samples.
as §4

Wistar rats [5] = experiment: Learned helplessness model: Elevated Plus-Maze test; type: in vivo; conditions: Map 4.5 mg/kg i/p; FQSE 0.5 and 2.5 mg/kg i/n
Protocol: Weigh was measured on an analytical balance, with an accuracy of 0.0001 g, the solution was prepared with a margin of 0.5 ml. For the experiment, a freshly prepared FQSE (SEQ ID NO:10) solution was used; for the second day, this solution was stored in a refrigerator at +4° C. The tetracyclic antidepressant Maprotiline (Lyudiomil), a monoamine reuptake inhibitor, was used as a positive control. […] The classical paradigm of “learned helplessness” (LH) was used as an experimental model of depression ([…] et al. (1975). Learned helplessness in the rat. J. Comp. Physiol. […] The state of “learned helplessness” according to modern concepts adequately reflects anxiety-depressive syndrome, reproducing the main signs of a person's endogenous depression, including the severity of effects of helplessness, hopelessness, and characteristic endocrine disorders. To develop LH, rats were subjected to uncontrolled unavoidable aversive stress (electro cutaneous irritation). […] Stimulation was performed automatically using a software randomizer. […] The time spent by the animal inside and outside the closed arms (in the open arms and in the center), the number of transitions between the arms, the number of stretch-attended postures were evaluated. […]

p-p70S6k (Thr421/Ser424) = experiment: Western blot of brain homogenates after CRS: p-p70S6k; type: in vivo, rats; conditions: fluoxetine 5 mg/kg
Protocol: (§5) To simulate a depressive state, experimental animals were placed in the individual restrainers (“Open Science”, Russia) for six hours daily for 14 days (hereinafter “chronic restraint stress=CRS”). […] The administration of drugs was carried out daily, 30 minutes before placing rats in the restrainers.
(§6) At the end of the behavioral examination, the rats were decapitated, and their brains extracted for subsequent western blot analysis. A total of 51 samples of homogenized brain tissue from Sprague-Dawley rats (3-4 months old) were received from the Customer. 25 samples were homogenates of the cerebral cortex, 26 samples were homogenates of the hippocampus isolated from rat brain. The amount of homogenized tissue in each sample was less than 50 mg. […] They were Incubated in ice for 30 minutes. Then the samples were centrifuged at 12000 g, 15 minutes, +4° C.
(§7) All the steps necessary for the analysis of protein levels of BDNF, p-p70S6k (Thr421/Ser424), p-ERK (one and two), (Thr202/Tyr204), p-GSK3β (Ser9), p-PKC (PKCG gamma Thr514) and the GAPDH reference protein were provided in the studied samples using Western blotting. […]
(§8) The integral areas of the spots obtained were calculated as a quantitative assessment and then normalized to the amount of protein in the sample.

p-GSK3β (Ser9) = experiment: Western blot of brain homogenates after CRS: p-GSK3β; type: in vivo, rats; conditions: fluoxetine; FQSE
Protocol: as §5, §6, §7, §8

p-ERK 2 (Tyr204) = experiment: Western blot of brain homogenates after CRS: p-ERK2; type: in vivo, rats; conditions: fluoxetine 5 mg/kg; FQSE 0.3 mg/kg; against stress and control levels
Protocol: as §5, §6, §7, §8

Sprague-Dawley rats = experiment: Chronic restraint stress model: Porsolt Forced Swimming test; type: in vivo; conditions: CRS, FQSE 3 mg/kg intranasal
Protocol: To simulate a depressive state, experimental animals were placed in the individual restrainers (“Open Science”, Russia) for six hours daily for 14 days (hereinafter “chronic restraint stress=CRS”). In order to study the neurotrophic effect of FQSE (SEQ ID NO:10), the animals were divided into 5 groups, 10 individuals each. The groups are as follows: Group 1, control unstressed animals, receiving 10 μl (a pair of 5 μl doses) of saline intranasally; Group 2, stressed animals, receiving 10 pI of saline intranasal (CRS+Veh); Group 3, stressed animals, receiving fluoxetine (FO) at a dose of 5 mg/kg intraperitoneal (CRS+FO, positive control); Group 4, stressed animals, receiving a peptide drug at a dose of 0.3 mg/kg in 10 pI of saline intranasal (CRS+FQSE (SEQ ID NO:10) 0.3); Group 5, stressed animals, receiving a peptide drug at a dose of 3 mg/kg in […] of saline intranasal (CRS+FQSE (SEQ ID NO:10) 3). The administration of drugs was carried out daily, 30 minutes before placing rats in the restrainers. […]
The changes in motor activity and emotional state of animals were evaluated in the Open Field (OFT) and Porsolt Forced Swimming tests (FST) fourteen days after the start of the experiment. […] For three minutes the horizontal and vertical motor activity was measured. The total number of crossed squares, as well as the length of the distance, traveled, and the number of rears was counted. […]

BDNF = experiment: Western blot of brain homogenates after CRS: BDNF; type: in vivo, rats; conditions: fluoxetine 5 mg/kg
Protocol: as §5, §6, §7, §8

p-PKC (PKC gamma Thr514) = experiment: Western blot of brain homogenates after CRS: p-PKC; type: in vivo, rats
Protocol: as §5, §6, §7, §8

Q: For `C[C@]12N[C@H](Cc3ccccc31)c1ccccc12` [MK-801], which IC50 [1] is on record?
A: 7 nM

Q: What does the source list for `CNCCCC12CCC(c3ccccc31)c1ccccc12` [Maprotiline]?
A: active swimming time (Wistar rats [2]): increase in active swimming time; time spent immobile (Wistar rats [2]): significant reduction; vertical activity (rears) (Wistar rats [3]; FQSE 0.5 mg/kg i/n, Map 4.5 mg/kg i/p): did not differ; freezing time when placed in the center of the OF (Wistar rats [3]; FQSE 2.5 mg/kg i/n, Maprotiline 4.5 mg/kg i/p, daily, vs LH group): significant decrease; decrease in the number of animals showing immobilization after LH (Wistar rats [3]; Maprotiline 4.5 mg/kg i/p, FQSE 2.5 mg/kg i/n): 2.3 fold; magnitude of suppression—Δ between the Saline and DXM in the stress level of corticosterone ([4]; LH + FQSE 0.5, LH + Map.): 248.5 nmol/L; suppression of the stress-induced increase in CS in blood after DXM ([4]; Map 4.5 mg/kg, FQSE 0.5 mg/kg): significant suppression; basal level of corticosterone (CS) in plasma ([4]; Map, FQSE in both doses (0.5, 2.5 mg/kg), vs LH group): significantly lower level of CS; appearance on the open arms (Wistar rats [5]): did not reach statistical significance

Q: `CNCCC(Oc1ccc(C(F)(F)F)cc1)c1ccccc1` (stereo not drawn) [fluoxetine] was tested. Which “levels of p-p70S6k in cerebral cortex or hippocampus” value (p-p70S6k (Thr421/Ser424)) did it give?
A: showed no relation

Q: What about the “p-GSK3β in the hippocampus” value (p-GSK3β (Ser9)) of the same compound?
A: no response

Q: What about the “cortical levels of p-ERK 2 (Tyr204)” value (p-ERK 2 (Tyr204)) of the same compound?
A: decreased

Q: And the “duration of active swimming” value (Sprague-Dawley rats; FO 5 mg/kg intraperitoneal)?
A: no effect

Q: And the “time spent passive (inactive) swimming” value (Sprague-Dawley rats; FO 5 mg/kg, vs CRS+Veh)?
A: had no effect

Q: What about the “levels of BDNF protein in cerebral cortex and hippocampus” value (BDNF) of the same compound?
A: showed no relation

Q: And the “levels of p-PKC (Thr 514) in the cerebral cortex” value (p-PKC (PKC gamma Thr514); fluoxetine 5 mg/kg, FQSE 0.3 mg/kg)?
A: showed no changes

Q: And the “normalization of p-PKC levels in the hippocampus” value (p-PKC (PKC gamma Thr514); fluoxetine, FQSE)?
A: neither fluoxetine nor peptide FQSE (SEQ ID NO:10) contributed to the normalization
